Tests used:
Test in all cases: KINOMEscan competition binding
Conditions in all cases: compound 10.0 µM
ACVR1 (human) = ACVR1 (human) (UniProt Q04771)
AURKB (human) = AURKB (human) (UniProt Q96GD4)
BMPR1B (human) = BMPR1B (human) (UniProt O00238)
BRSK2 (human) = BRSK2 (human) (UniProt Q8IWQ3)
CAMKK1 (human) = CAMKK1 (human) (UniProt Q8N5S9)
CAMKK2 (human) = CAMKK2 (human) (UniProt Q96RR4)
CIT (human) = CIT (human) (UniProt O14578)
CLK1 (human) = CLK1 (human) (UniProt P49759)
CLK4 (human) = CLK4 (human) (UniProt Q9HAZ1)
CSNK1D (human) = CSNK1D (human) (UniProt P48730)
CSNK1G3 (human) = CSNK1G3 (human) (UniProt Q9Y6M4)
CSNK2A2 (human) = CSNK2A2 (human) (UniProt P19784)
DAPK1 (human) = DAPK1 (human) (UniProt P53355)
DYRK1B (human) = DYRK1B (human) (UniProt Q9Y463)
[1] = test system: EGFR (human), P00533 [G719S]
[2] = test system: EIF2AK4 KD2 (human), Q9P2K8 [S808G]
FLT3 (human) = FLT3 (human) (UniProt P36888)
[3] = test system: FLT3 (human), P36888 [ITD]
[4] = test system: FLT3 (human), P36888 [K663Q]
GAK (human) = GAK (human) (UniProt O14976)
GSK3A (human) = GSK3A (human) (UniProt P49840)
KIT (human) = KIT (human) (UniProt P10721)
MAP3K5 (human) = MAP3K5 (human) (UniProt Q99683)
MAP3K7 (human) = MAP3K7 (human) (UniProt O43318)
MAP4K4 (human) = MAP4K4 (human) (UniProt O95819)
MELK (human) = MELK (human) (UniProt Q14680)
MKNK2 (human) = MKNK2 (human) (UniProt Q9HBH9)
MYLK3 (human) = MYLK3 (human) (UniProt Q32MK0)
PIK3CG (human) = PIK3CG (human) (UniProt P48736)
PIM2 (human) = PIM2 (human) (UniProt Q9P1W9)
PLK4 (human) = PLK4 (human) (UniProt O00444)
PRKD3 (human) = PRKD3 (human) (UniProt O94806)
RIOK2 (human) = RIOK2 (human) (UniProt Q9BVS4)
RIOK3 (human) = RIOK3 (human) (UniProt O14730)
RIPK4 (human) = RIPK4 (human) (UniProt P57078)
RPS6KA1 KD2 (human) = RPS6KA1 KD2 (human) (UniProt Q15418)
RPS6KA5 KD2 (human) = RPS6KA5 KD2 (human) (UniProt O75582)
SRPK3 (human) = SRPK3 (human) (UniProt Q9UPE1)
STK16 (human) = STK16 (human) (UniProt O75716)
STK17B (human) = STK17B (human) (UniProt O94768)
STK24 (human) = STK24 (human) (UniProt Q9Y6E0)
TNIK (human) = TNIK (human) (UniProt Q9UKE5)

STK17B (human), sequence (O94768 whole entry, looked up): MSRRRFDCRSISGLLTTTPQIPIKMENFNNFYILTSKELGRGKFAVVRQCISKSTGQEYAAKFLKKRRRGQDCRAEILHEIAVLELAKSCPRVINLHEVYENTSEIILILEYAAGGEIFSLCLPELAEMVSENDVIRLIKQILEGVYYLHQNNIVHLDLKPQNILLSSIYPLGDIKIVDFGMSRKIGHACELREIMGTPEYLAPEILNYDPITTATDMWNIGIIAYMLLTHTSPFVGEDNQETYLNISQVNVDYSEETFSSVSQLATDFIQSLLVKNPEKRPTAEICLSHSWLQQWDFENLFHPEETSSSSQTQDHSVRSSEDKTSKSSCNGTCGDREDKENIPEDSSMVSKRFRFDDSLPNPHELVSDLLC
MYLK3 (human), sequence (Q32MK0 whole entry, looked up): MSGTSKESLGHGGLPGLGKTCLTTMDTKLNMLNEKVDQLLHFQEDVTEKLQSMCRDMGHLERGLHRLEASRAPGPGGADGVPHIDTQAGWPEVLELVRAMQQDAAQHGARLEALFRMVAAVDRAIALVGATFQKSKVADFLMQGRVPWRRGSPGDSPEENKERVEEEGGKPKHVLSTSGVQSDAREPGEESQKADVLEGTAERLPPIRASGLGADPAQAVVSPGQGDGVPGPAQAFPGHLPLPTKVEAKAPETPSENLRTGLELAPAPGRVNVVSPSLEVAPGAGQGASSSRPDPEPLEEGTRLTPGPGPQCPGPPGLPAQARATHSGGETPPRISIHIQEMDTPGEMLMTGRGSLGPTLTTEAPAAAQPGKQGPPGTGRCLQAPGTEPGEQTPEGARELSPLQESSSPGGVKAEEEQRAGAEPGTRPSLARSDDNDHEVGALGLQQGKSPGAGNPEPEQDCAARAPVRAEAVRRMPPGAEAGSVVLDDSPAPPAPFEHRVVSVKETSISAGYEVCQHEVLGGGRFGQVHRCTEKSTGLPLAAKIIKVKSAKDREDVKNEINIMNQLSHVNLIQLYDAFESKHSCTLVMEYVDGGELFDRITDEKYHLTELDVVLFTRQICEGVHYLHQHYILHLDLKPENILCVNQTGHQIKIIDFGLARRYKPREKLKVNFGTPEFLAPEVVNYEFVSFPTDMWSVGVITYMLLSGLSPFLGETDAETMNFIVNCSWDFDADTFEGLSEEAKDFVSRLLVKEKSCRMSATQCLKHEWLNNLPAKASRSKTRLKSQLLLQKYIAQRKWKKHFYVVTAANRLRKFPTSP
GSK3A (human), sequence (P49840 whole entry, looked up): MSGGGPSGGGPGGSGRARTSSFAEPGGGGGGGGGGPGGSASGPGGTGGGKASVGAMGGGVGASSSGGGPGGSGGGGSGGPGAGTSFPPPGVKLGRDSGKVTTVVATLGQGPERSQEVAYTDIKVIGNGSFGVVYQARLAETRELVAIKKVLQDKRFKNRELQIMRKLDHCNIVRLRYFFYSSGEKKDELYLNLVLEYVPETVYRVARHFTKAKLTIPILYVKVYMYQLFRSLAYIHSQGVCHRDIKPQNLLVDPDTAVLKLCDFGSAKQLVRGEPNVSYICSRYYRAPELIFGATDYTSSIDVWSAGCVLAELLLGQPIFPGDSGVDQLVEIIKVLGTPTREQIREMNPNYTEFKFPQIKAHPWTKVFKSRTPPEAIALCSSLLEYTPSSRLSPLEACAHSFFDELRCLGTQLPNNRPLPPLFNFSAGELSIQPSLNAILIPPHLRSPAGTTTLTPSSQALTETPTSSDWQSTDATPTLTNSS
STK16 (human), sequence (O75716 whole entry, looked up): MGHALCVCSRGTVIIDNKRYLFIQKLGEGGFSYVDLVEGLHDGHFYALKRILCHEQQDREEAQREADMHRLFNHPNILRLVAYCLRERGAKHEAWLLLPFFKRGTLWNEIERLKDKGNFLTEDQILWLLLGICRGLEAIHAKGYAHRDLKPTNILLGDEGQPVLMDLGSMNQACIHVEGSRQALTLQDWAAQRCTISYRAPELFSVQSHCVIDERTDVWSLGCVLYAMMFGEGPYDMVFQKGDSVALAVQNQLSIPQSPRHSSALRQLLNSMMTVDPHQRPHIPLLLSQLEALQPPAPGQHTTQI
SRPK3 (human), sequence (Q9UPE1 whole entry, looked up): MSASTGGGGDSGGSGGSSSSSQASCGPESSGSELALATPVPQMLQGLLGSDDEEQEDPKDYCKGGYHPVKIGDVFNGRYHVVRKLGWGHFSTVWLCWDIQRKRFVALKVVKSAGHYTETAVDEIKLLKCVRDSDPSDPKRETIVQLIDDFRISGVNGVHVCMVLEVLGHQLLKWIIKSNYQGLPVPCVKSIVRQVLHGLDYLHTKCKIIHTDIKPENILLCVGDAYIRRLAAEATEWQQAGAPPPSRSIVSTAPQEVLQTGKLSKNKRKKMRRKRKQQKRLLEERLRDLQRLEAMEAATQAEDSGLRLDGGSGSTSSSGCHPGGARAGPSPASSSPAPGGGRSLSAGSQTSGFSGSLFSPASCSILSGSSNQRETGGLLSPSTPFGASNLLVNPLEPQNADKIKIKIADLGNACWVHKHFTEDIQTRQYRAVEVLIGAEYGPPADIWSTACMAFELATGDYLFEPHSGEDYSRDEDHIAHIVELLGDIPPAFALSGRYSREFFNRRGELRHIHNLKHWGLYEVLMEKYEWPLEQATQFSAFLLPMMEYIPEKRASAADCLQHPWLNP
MKNK2 (human), sequence (Q9HBH9 whole entry, looked up): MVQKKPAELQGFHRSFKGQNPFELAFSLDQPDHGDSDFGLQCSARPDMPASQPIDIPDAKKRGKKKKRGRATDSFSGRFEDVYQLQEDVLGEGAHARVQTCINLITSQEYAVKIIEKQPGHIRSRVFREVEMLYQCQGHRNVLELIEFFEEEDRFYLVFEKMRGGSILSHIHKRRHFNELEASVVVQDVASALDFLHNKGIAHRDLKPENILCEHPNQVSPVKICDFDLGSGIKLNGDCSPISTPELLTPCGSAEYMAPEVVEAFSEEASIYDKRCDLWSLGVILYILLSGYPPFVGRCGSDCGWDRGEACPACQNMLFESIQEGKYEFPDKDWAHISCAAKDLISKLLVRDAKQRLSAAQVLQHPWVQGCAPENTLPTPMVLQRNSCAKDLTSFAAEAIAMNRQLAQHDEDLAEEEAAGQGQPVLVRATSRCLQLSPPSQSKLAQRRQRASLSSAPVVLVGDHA
RIOK3 (human), sequence (O14730 whole entry, looked up): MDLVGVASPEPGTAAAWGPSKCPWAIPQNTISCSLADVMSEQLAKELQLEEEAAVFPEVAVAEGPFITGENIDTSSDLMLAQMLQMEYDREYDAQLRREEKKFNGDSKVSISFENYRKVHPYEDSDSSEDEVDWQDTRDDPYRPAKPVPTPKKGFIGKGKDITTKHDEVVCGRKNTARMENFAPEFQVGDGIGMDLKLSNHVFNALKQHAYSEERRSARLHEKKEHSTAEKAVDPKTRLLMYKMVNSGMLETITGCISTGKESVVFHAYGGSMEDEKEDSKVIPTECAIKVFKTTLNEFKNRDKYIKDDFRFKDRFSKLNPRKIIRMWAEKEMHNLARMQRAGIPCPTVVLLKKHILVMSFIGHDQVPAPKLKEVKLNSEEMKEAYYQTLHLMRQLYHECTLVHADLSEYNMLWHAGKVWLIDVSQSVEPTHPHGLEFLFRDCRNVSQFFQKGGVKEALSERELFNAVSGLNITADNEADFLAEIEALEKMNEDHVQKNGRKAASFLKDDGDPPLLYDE
BMPR1B (human), sequence (O00238 whole entry, looked up): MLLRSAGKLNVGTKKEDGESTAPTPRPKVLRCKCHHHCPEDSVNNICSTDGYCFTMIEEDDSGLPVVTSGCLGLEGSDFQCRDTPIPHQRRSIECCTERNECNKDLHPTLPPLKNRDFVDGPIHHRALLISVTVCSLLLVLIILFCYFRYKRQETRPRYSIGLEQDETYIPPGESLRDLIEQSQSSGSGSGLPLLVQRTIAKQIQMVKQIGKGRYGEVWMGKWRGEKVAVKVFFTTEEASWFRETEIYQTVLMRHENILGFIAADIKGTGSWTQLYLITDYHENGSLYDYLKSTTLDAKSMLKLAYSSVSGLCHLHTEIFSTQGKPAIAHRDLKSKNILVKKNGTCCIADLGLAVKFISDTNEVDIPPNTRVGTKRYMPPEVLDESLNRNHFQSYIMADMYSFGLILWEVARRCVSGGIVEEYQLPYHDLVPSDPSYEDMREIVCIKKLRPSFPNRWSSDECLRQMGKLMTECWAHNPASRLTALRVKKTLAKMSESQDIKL
RIOK2 (human), sequence (Q9BVS4 whole entry, looked up): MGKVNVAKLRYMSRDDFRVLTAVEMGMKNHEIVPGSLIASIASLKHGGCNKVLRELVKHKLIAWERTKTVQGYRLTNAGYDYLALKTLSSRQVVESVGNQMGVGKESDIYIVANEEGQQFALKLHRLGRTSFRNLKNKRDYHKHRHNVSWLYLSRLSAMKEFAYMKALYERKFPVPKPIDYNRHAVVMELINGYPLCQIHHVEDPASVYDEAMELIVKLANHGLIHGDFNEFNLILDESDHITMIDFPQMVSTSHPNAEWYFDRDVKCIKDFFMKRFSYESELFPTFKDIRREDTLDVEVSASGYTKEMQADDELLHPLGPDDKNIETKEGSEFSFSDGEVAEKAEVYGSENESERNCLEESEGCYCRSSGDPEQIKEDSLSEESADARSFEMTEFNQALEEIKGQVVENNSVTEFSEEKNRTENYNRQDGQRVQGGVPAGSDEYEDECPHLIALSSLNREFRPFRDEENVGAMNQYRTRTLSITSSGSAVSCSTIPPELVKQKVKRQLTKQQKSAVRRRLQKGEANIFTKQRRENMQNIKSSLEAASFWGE
AURKB (human), sequence (Q96GD4 whole entry, looked up): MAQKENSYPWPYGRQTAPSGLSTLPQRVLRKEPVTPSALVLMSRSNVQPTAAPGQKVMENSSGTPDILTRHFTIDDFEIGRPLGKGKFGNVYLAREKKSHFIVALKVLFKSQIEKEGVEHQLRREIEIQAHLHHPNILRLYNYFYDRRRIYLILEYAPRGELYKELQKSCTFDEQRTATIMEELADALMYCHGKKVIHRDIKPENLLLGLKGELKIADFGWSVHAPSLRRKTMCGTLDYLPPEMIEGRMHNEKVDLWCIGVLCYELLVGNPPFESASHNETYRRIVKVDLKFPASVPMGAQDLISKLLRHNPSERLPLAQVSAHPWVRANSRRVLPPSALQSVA

COc1cc(N2CCN(C)CC2)ccc1Nc1ncc2c(n1)N(C)c1ccccc1N(C)C2=O
kinase still bound, per cent of control (ACVR1 (human)): 100%
kinase still bound, per cent of control (AURKB (human)): 100%
kinase still bound, per cent of control (BMPR1B (human)): 100%
kinase still bound, per cent of control (BRSK2 (human)): 85%
kinase still bound, per cent of control (CAMKK1 (human)): 73%
kinase still bound, per cent of control (CAMKK2 (human)): 53%
kinase still bound, per cent of control (CIT (human)): 95%
kinase still bound, per cent of control (CLK1 (human)): 66%
kinase still bound, per cent of control (CLK4 (human)): 99%
kinase still bound, per cent of control (CSNK1D (human)): 76%
kinase still bound, per cent of control (CSNK1G3 (human)): 98%
kinase still bound, per cent of control (CSNK2A2 (human)): 88%
kinase still bound, per cent of control (DAPK1 (human)): 82%
kinase still bound, per cent of control (DYRK1B (human)): 92%
kinase still bound, per cent of control [1]: 90%
kinase still bound, per cent of control [2]: 100%
kinase still bound, per cent of control (FLT3 (human)): 96%
kinase still bound, per cent of control [3]: 92%
kinase still bound, per cent of control [4]: 92%
kinase still bound, per cent of control (GAK (human)): 45%
kinase still bound, per cent of control (GSK3A (human)): 100%
kinase still bound, per cent of control (KIT (human)): 100%
kinase still bound, per cent of control (MAP3K5 (human)): 100%
kinase still bound, per cent of control (MAP3K7 (human)): 100%
kinase still bound, per cent of control (MAP4K4 (human)): 85%
kinase still bound, per cent of control (MELK (human)): 80%
kinase still bound, per cent of control (MKNK2 (human)): 0.55%
kinase still bound, per cent of control (MYLK3 (human)): 100%
kinase still bound, per cent of control (PIK3CG (human)): 100%
kinase still bound, per cent of control (PIM2 (human)): 100%
kinase still bound, per cent of control (PLK4 (human)): 67%
kinase still bound, per cent of control (PRKD3 (human)): 85%
kinase still bound, per cent of control (RIOK2 (human)): 50%
kinase still bound, per cent of control (RIOK3 (human)): 77%
kinase still bound, per cent of control (RIPK4 (human)): 100%
kinase still bound, per cent of control (RPS6KA1 KD2 (human)): 56%
kinase still bound, per cent of control (RPS6KA5 KD2 (human)): 93%
kinase still bound, per cent of control (SRPK3 (human)): 68%
kinase still bound, per cent of control (STK16 (human)): 100%
kinase still bound, per cent of control (STK17B (human)): 100%
kinase still bound, per cent of control (STK24 (human)): 100%
kinase still bound, per cent of control (TNIK (human)): 90%

CN1C(=O)c2ccccc2N(C)c2nc(NS(=O)(=O)c3ccc(N)cc3)ncc21
kinase still bound, per cent of control (ACVR1 (human)): 100%
kinase still bound, per cent of control (AURKB (human)): 100%
kinase still bound, per cent of control (BMPR1B (human)): 100%
kinase still bound, per cent of control (BRSK2 (human)): 100%
kinase still bound, per cent of control (CAMKK1 (human)): 100%
kinase still bound, per cent of control (CAMKK2 (human)): 100%
kinase still bound, per cent of control (CIT (human)): 100%
kinase still bound, per cent of control (CLK1 (human)): 100%
kinase still bound, per cent of control (CLK4 (human)): 100%
kinase still bound, per cent of control (CSNK1D (human)): 82%
kinase still bound, per cent of control (CSNK1G3 (human)): 100%
kinase still bound, per cent of control (CSNK2A2 (human)): 76%
kinase still bound, per cent of control (DAPK1 (human)): 100%
kinase still bound, per cent of control (DYRK1B (human)): 100%
kinase still bound, per cent of control [1]: 100%
kinase still bound, per cent of control [2]: 100%
kinase still bound, per cent of control (FLT3 (human)): 100%
kinase still bound, per cent of control [3]: 100%
kinase still bound, per cent of control [4]: 100%
kinase still bound, per cent of control (GAK (human)): 100%
kinase still bound, per cent of control (GSK3A (human)): 100%
kinase still bound, per cent of control (KIT (human)): 76%
kinase still bound, per cent of control (MAP3K5 (human)): 100%
kinase still bound, per cent of control (MAP3K7 (human)): 87%
kinase still bound, per cent of control (MAP4K4 (human)): 100%
kinase still bound, per cent of control (MELK (human)): 100%
kinase still bound, per cent of control (MKNK2 (human)): 72%
kinase still bound, per cent of control (MYLK3 (human)): 100%
kinase still bound, per cent of control (PIK3CG (human)): 96%
kinase still bound, per cent of control (PIM2 (human)): 100%
kinase still bound, per cent of control (PLK4 (human)): 97%
kinase still bound, per cent of control (PRKD3 (human)): 100%
kinase still bound, per cent of control (RIOK2 (human)): 71%
kinase still bound, per cent of control (RIOK3 (human)): 69%
kinase still bound, per cent of control (RIPK4 (human)): 89%
kinase still bound, per cent of control (RPS6KA1 KD2 (human)): 100%
kinase still bound, per cent of control (RPS6KA5 KD2 (human)): 100%
kinase still bound, per cent of control (SRPK3 (human)): 100%
kinase still bound, per cent of control (STK16 (human)): 100%
kinase still bound, per cent of control (STK17B (human)): 100%
kinase still bound, per cent of control (STK24 (human)): 100%
kinase still bound, per cent of control (TNIK (human)): 100%
